# Laboratory results taken from patent US20040220403A1, “1-(2-Methoxybenzyl)-3-benzhydrylpiperazines as tachykinin anatgonists” (priority 2001, published 2004).
# Test system: not given
# Experiment: not given
# Settings: not given
row,Compound,melting point
1,COc1ccc(-n2nnnc2C(F)(F)F)cc1CN1C[C@@H]2CN(C(=O)COC(C)=O)CCN2[C@H](C(c2ccccc2)c2ccccc2)C1.Cl.Cl,138 to 153 °C
2,COc1ccc(-n2nnnc2C(F)(F)F)cc1CN1C[C@@H]2CN(C(=O)C(C)(C)OC(C)=O)CCN2[C@H](C(c2ccccc2)c2ccccc2)C1.Cl.Cl,143 to 148 °C
3,COc1ccc(-n2nnnc2C(F)(F)F)cc1CN1C[C@@H]2CN(C(=O)C3CCCCC3)CCN2[C@H](C(c2ccccc2)c2ccccc2)C1.Cl.Cl,169 to 174.5 °C
4,COc1ccc(-n2nnnc2CC(F)(F)F)cc1CN1C[C@@H]2CN(C(=O)c3cccnc3)CCN2[C@H](C(c2ccccc2)c2ccccc2)C1.Cl.Cl.Cl,197 to 200 °C
5,COc1ccc(-n2nnnc2C(F)(F)F)cc1CN1C[C@@H]2CN(C(=O)CO)CCN2[C@H](C(c2ccccc2)c2ccccc2)C1.Cl.Cl,140 to 159 °C
6,COc1ccc(-n2nnnc2C(F)(F)F)cc1CN1C[C@@H]2CN(C(=O)CCO)CCN2[C@H](C(c2ccccc2)c2ccccc2)C1.Cl.Cl,147 to 154 °C
7,COc1ccc(-n2nnnc2C(F)(F)F)cc1CN1C[C@@H]2CN(C(=O)[C@H](C)O)CCN2[C@H](C(c2ccccc2)c2ccccc2)C1.Cl.Cl,150 to 158 °C
8,COc1ccc(-n2nnnc2C(F)(F)F)cc1CN1C[C@@H]2CN(C(=O)C3CCCC3)CCN2[C@H](C(c2ccccc2)c2ccccc2)C1.Cl.Cl,170 to 178 °C (dec.)
9,COCCC(=O)N1CCN2[C@H](CN(Cc3cc(-n4nnnc4C(F)(F)F)ccc3OC)C[C@H]2C(c2ccccc2)c2ccccc2)C1.Cl.Cl,132 to 135 °C
10,COc1ccc(-n2nnnc2C(F)(F)F)cc1CN1C[C@@H]2CN(C(=O)CC(F)(F)F)CCN2[C@H](C(c2ccccc2)c2ccccc2)C1.Cl.Cl,155 to 160 °C
11,COc1ccc(-n2nnnc2C(F)(F)F)cc1CN1C[C@@H]2CN(C(=O)N(C)C)CCN2[C@H](C(c2ccccc2)c2ccccc2)C1.Cl.Cl,158 to 164 °C
12,CNC(=O)N1CCN2[C@H](CN(Cc3cc(-n4nnnc4C(F)(F)F)ccc3OC)C[C@H]2C(c2ccccc2)c2ccccc2)C1.Cl.Cl,160 to 170 °C
13,COc1ccc(-n2nnnc2C(F)(F)F)cc1CN1C[C@@H]2CN(C(N)=O)CCN2[C@H](C(c2ccccc2)c2ccccc2)C1.Cl.Cl,165 to 190 °C
14,COc1ccc(-n2nnnc2C(F)(F)F)cc1CN1C[C@@H]2CN(C3CCC3)CCN2[C@H](C(c2ccccc2)c2ccccc2)C1.Cl.Cl.Cl,184 to 187 °C
15,COc1ccc(-n2nnnc2C(F)(F)F)cc1CN1C[C@@H]2CN(c3cccnc3)CCN2[C@H](C(c2ccccc2)c2ccccc2)C1.Cl.Cl.Cl,175 to 178 °C
16,COc1ccc(-n2nnnc2C(F)(F)F)cc1CN1C[C@@H]2CN(S(N)(=O)=O)CCN2[C@H](C(c2ccccc2)c2ccccc2)C1.Cl.Cl,174 to 176 °C
17,COc1ccc(-n2nnnc2C(F)(F)F)cc1CN1C[C@@H]2CN(CC(C)=O)CCN2[C@H](C(c2ccccc2)c2ccccc2)C1.Cl.Cl.Cl,175 to 179 °C
18,COc1ccc(-n2nnnc2C(F)(F)F)cc1CN1C[C@@H]2CN(C(C=O)C(=O)N(C)C)CCN2[C@H](C(c2ccccc2)c2ccccc2)C1.Cl.Cl (stereo partly shown),155 to 168 °C
19,COc1ccc(-n2nnnc2C(F)(F)F)cc1CN1C[C@@H]2CN(S(=O)(=O)N(C)C)CCN2[C@H](C(c2ccccc2)c2ccccc2)C1.Cl.Cl,148 to 152 °C
20,COc1ccc(-n2nnnc2C(F)(F)F)cc1CN1C[C@@H]2CN(S(=O)(=O)CS(C)(=O)=O)CCN2[C@H](C(c2ccccc2)c2ccccc2)C1.Cl.Cl,162 to 168 °C
21,COc1ccc(-n2nnnc2C(F)(F)F)c(OC)c1CN1C[C@@H]2CN(C(=O)CO)CCN2[C@H](C(c2ccccc2)c2ccccc2)C1.Cl.Cl,128 to 132 °C
22,COc1ccc(-n2nnnc2C(F)(F)F)cc1CN1C[C@@H]2CC(NC(=O)CO)CN2[C@H](C(c2ccccc2)c2ccccc2)C1.Cl.Cl (stereo partly shown),155 to 159 °C

# Test system: Emesis in the Dog
# Experiment: Emesis in the Dog (apomorphine-induced retching and vomiting)
# Type: in vivo
# Settings: adult female dogs; test compound i.v. at the dose of 1.0 mg/kg; 5 min later subcutaneous apomorphine (0.1 mg/0.5 ml/kg); observed for the next 60 min
# Experimental: Individually housed adult female dogs (8 to 15 kg) were given an i.v. injection of a solution containing a test compound. 5 Min later the emetic responses (retching and vomiting) were induced by administration of subcutaneous apomorphine (0.1 mg/0.5 ml/kg) and observed for the next 60 min. The timing and number of retches and vomits observed were recorded for each animal. An individual animal was tested with at least 10 days between experiments.
row,Compound,inhibition rate of emesis in the dog [%]
1,"COc1ccc(-n2nnnc2C(F)(F)F)c(OC)c1CN1C[C@@H]2CN(C(=O)N(C)C)CCN2[C@H](C(c2ccccc2)c2ccccc2)C1.Cl.Cl [52-(5), (6R,9aR)-6-Benzhydryl-8-[2,6-dimethoxy-3-[5-(trifluoromethyl)-1H-tetrazol-1-yl]benzyl]-N,N-dimethyloctahydro-2H-pyrazino[1,2-a]pyrazine-2-carboxamide dihydrochloride]",100
2,"COc1ccc(-n2nnnc2C(F)(F)F)c(OC)c1CN1C[C@@H]2C[C@@H](NC(C)=O)CN2[C@H](C(c2ccccc2)c2ccccc2)C1.Cl.Cl [52-(14), N-[(4R, 7R, 8aS)-4-Benzhydryl-2-[2,6-dimethoxy-3-[5-(trifluoromethyl)-1H-tetrazol-1-yl]benzyl]octahydropyrrolo-[1,2-a]pyrazin-7-yl]acetamide dihydrochloride]",100
3,"COc1ccc(-n2nnnc2C(F)(F)F)c(OC)c1CN1CCN(Cc2cnn(C)c2)[C@H](C(c2ccccc2)c2ccccc2)C1.Cl.Cl [57-(1), (2R)-2-Benzhydryl-4-[2,6-dimethoxy-3-[5-(trifluoromethyl)-1H-tetrazol-1-yl]benzyl]-1-[(1-methyl-1H-pyrazol-4-yl)methyl]piperazine dihydrochloride]",100
